Values joined by “and” are separate entries in the source; they are usually repeats but may differ in a detail not shown here. Equal entries are not always repeated. Inconclusive results and toxic doses are left out. Rule for the calls: active = survival T/C of 150% or more; inactive = T/C below 125% in these data.
System: P388 leukemia ip, CD2F1 mice, survival T/C
Assay: NCI In Vivo Anticancer Drug Screen. Data for tumor model P388 Leukemia (intraperitoneal) in CD2F1 (CDF1) mice
Conditions: endpoint: median survival time, higher = longer survival
Procedure, shortened: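 Mice carrying the transplanted tumor received test compound or vehicle. Survival was recorded in each group, and the value is the treated-group measurement divided by that of the vehicle-treated control group.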

[1] = dose: 50.0 mg/kg/injection, schedule: Q01DX005 (ip), vehicle: saline
[2] = dose: 15.0 mg/kg/injection, schedule: Q01DX005 (ip), vehicle: saline with Tween-80
[3] = dose: 60.0 mg/kg/injection, schedule: Q01DX005 (ip), vehicle: saline with Tween-80
[4] = dose: 120.0 mg/kg/injection, schedule: Q01DX005 (ip), vehicle: saline with Tween-80
[5] = dose: 50.0 mg/kg/injection, schedule: Q01DX005 (ip), vehicle: saline with Tween-80
[6] = dose: 100.0 mg/kg/injection, schedule: Q01DX005 (ip), vehicle: saline with Tween-80
[7] = dose: 200.0 mg/kg/injection, schedule: Q01DX005 (ip), vehicle: saline with Tween-80
[8] = dose: 12.5 mg/kg/injection, schedule: Q01DX009 (ip), vehicle: saline with Tween-80
[9] = dose: 25.0 mg/kg/injection, schedule: Q01DX009 (ip), vehicle: saline with Tween-80
[10] = dose: 50.0 mg/kg/injection, schedule: Q01DX009 (ip), vehicle: saline with Tween-80
[11] = dose: 200.0 mg/kg/injection, schedule: Q01DX009 (ip), vehicle: saline with Tween-80
[12] = dose: 100.0 mg/kg/injection, schedule: Q01DX009 (ip), vehicle: saline with Tween-80
[13] = dose: 100.0 mg/kg/injection, schedule: Q01DX009 (ip), vehicle: saline
[14] = dose: 200.0 mg/kg/injection, schedule: Q01DX009 (ip), vehicle: saline

Measured: T/C

CCN(CC)CCN1C(=O)CCC1=O
inactive: [1] 100 % of control | dose: 100.0 mg/kg/injection, schedule: Q01DX005 (ip), vehicle: saline 109 % of control | dose: 200.0 mg/kg/injection, schedule: Q01DX005 (ip), vehicle: saline 104 % of control

S=C(SSC(=S)N1CCOCC1)N1CCOCC1
inactive: [2] 97 % of control | dose: 30.0 mg/kg/injection, schedule: Q01DX005 (ip), vehicle: saline with Tween-80 102 % of control | [3] 102 % of control and 107 % of control | [4] 104 % of control

C(=C/c1nc2ccccc2nc1CCN1CCCCC1)/c1ccc2c(c1)OCO2
inactive: [5] 100 % of control | [6] 102 % of control | [7] 102 % of control

CCCN(C)CC(C)(O)CNc1cc(OC)cc2cccnc12 (centres undefined)
inactive: dose: 12.5 mg/kg/injection, schedule: Q01DX005 (ip), vehicle: saline 100 % of control | dose: 25.0 mg/kg/injection, schedule: Q01DX005 (ip), vehicle: saline 95 % of control | [5] 106 % of control | [1] 99 % of control

O=C(O)C1=C(C=C(c2ccccc2)c2ccccc2)OCCC1
inactive: [8] 92 % of control | [9] 90 % of control | [10] 91 % of control | [11] 97 % of control

CCN(CC)CCNC1=C(Cl)C(=O)c2ccccc2C1=O
inactive: dose: 1.56 mg/kg/injection, schedule: Q01DX009 (ip), vehicle: saline 95 % of control | dose: 3.13 mg/kg/injection, schedule: Q01DX009 (ip), vehicle: saline 96 % of control | dose: 6.25 mg/kg/injection, schedule: Q01DX009 (ip), vehicle: saline 96 % of control | dose: 12.5 mg/kg/injection, schedule: Q01DX009 (ip), vehicle: distilled water + Tween-80 100 % of control | dose: 12.5 mg/kg/injection, schedule: Q01DX009 (ip), vehicle: saline 101 % of control

CCSc1ccc([N+](=O)[O-])c2c(SCC)c3ccccc3nc12
inactive: [5] 92 % of control | [6] 95 % of control | [7] 99 % of control

O=C1CC[S][Sn][O]1
inactive: dose: 100.0 mg/kg/injection, schedule: Q04DX003 (ip), vehicle: saline with Tween-80 100 % of control | dose: 200.0 mg/kg/injection, schedule: Q04DX003 (ip), vehicle: saline with Tween-80 95 % of control | dose: 400.0 mg/kg/injection, schedule: Q04DX003 (ip), vehicle: saline with Tween-80 95 % of control

CCOC(=O)COC(=O)C1C(C(N)=O)N(CC(=O)OCC)CCN1CC(=O)OCC (centres undefined)
inactive: [5] 101 % of control | [6] 99 % of control | [7] 103 % of control

Cc1ncn2c(C)nnc2c1C
inactive: [10] 102 % of control | [12] 100 % of control | [11] 102 % of control

O=C1/C(=C\c2ccccc2)SC(=S)N1c1cccc(Br)c1
inactive: dose: 25.0 mg/kg/injection, schedule: Q01DX005 (ip), vehicle: saline with Tween-80 87 % of control | [5] 97 % of control | [6] 106 % of control

COc1ccc(C2CC3CCC(C2O)N3C)cc1 (centres undefined)
inactive: dose: 50.0 mg/kg/injection, schedule: Q01DX005 (ip), vehicle: Klucel (hydroxypropylcellulose) (HPC) 103 % of control | dose: 100.0 mg/kg/injection, schedule: Q01DX005 (ip), vehicle: Klucel (hydroxypropylcellulose) (HPC) 96 % of control

COc1cc(O)c(C(c2ccccc2)c2c(O)c(C)c(O)c3c2OC(c2ccccc2)CC3=O)c(O)c1C (centres undefined)
inactive: dose: 5.0 mg/kg/injection, schedule: Q01DX009 (ip), vehicle: Klucel (hydroxypropylcellulose) (HPC) 99 % of control | dose: 10.0 mg/kg/injection, schedule: Q01DX009 (ip), vehicle: Klucel (hydroxypropylcellulose) (HPC) 99 % of control | dose: 20.0 mg/kg/injection, schedule: Q01DX009 (ip), vehicle: Klucel (hydroxypropylcellulose) (HPC) 103 % of control | dose: 40.0 mg/kg/injection, schedule: Q01DX009 (ip), vehicle: Klucel (hydroxypropylcellulose) (HPC) 99 % of control

COc1ccc(OC)c(NC(=O)NC(c2ccccc2)c2ccccc2)c1
inactive: dose: 3.12 mg/kg/injection, schedule: Q01DX009 (ip), vehicle: Klucel (hydroxypropylcellulose) (HPC) 96 % of control | dose: 6.25 mg/kg/injection, schedule: Q01DX009 (ip), vehicle: Klucel (hydroxypropylcellulose) (HPC) 90 % of control | dose: 200.0 mg/kg/injection, schedule: Q01DX009 (ip), vehicle: Klucel (hydroxypropylcellulose) (HPC) 93 % of control

O=C(NC(=O)c1c(F)cccc1F)Nc1ccc(Cl)nc1
inactive: dose: 3.13 mg/kg/injection, schedule: Q01DX009 (ip), vehicle: saline with Tween-80 105 % of control | dose: 6.25 mg/kg/injection, schedule: Q01DX009 (ip), vehicle: saline with Tween-80 100 % of control | [8] 102 % of control

O=C1Cn2c(c3ccccc3nc2=O)N1
inactive: [5] 104 % of control | [6] 103 % of control | [7] 106 % of control

O=C(N1CCCCC(Cl)(Cl)C1=O)C(Cl)(Cl)Cl
inactive: [5] 106 % of control | [6] 103 % of control

COC(=O)C(CSCc1ccccc1)NC(=O)c1csc(CCNC(=O)c2ccccc2)n1 (centres undefined)
inactive: dose: 12.5 mg/kg/injection, schedule: Q01DX009 (ip), vehicle: DMSO 99 % of control | dose: 25.0 mg/kg/injection, schedule: Q01DX009 (ip), vehicle: DMSO 99 % of control | dose: 50.0 mg/kg/injection, schedule: Q01DX009 (ip), vehicle: DMSO 100 % of control | dose: 100.0 mg/kg/injection, schedule: Q01DX009 (ip), vehicle: DMSO 101 % of control | dose: 200.0 mg/kg/injection, schedule: Q01DX009 (ip), vehicle: DMSO 96 % of control

CC(C)=CCC(OC(=O)C=C(C)C)c1cc(O)c2c(O)ccc(O)c2c1O.[O]=[V] (centres undefined)
inactive: dose: 100.0 mg/kg/injection, schedule: Q04DX002 (ip), vehicle: saline with Tween-80 92 % of control | dose: 200.0 mg/kg/injection, schedule: Q04DX002 (ip), vehicle: saline with Tween-80 92 % of control | dose: 400.0 mg/kg/injection, schedule: Q04DX002 (ip), vehicle: saline with Tween-80 109 % of control

COC12c3c(C)cc(O)c4c(=O)occ(c34)C(=O)C1C13COC(=O)c4c(O)cc(C)c(c41)C(=O)C2C3OC(C)=O (centres undefined)
inactive: [9] 107 % of control and 119 % of control | [10] 111 % of control and 122 % of control | [12] 103 % of control and 120 % of control and 123 % of control

COc1ccc(/C(Cc2ccccc2)=N/NS(=O)(=O)c2ccc(C)cc2)cc1
inactive: dose: 50.0 mg/kg/injection, schedule: Q01DX009 (ip), vehicle: saline 89 % of control | [13] 101 % of control | [14] 98 % of control

CC1(C)COP(=O)(c2ccccc2)N1 (centres undefined)
inactive: [3] 103 % of control | [4] 107 % of control | dose: 240.0 mg/kg/injection, schedule: Q01DX005 (ip), vehicle: saline with Tween-80 101 % of control

CCCCN=C(N)N/N=C/c1c2ccccc2c(C)c2ccccc12
inactive: dose: 12.5 mg/kg/injection, schedule: Q04DX002 (ip), vehicle: saline with Tween-80 104 % of control | dose: 25.0 mg/kg/injection, schedule: Q04DX002 (ip), vehicle: saline with Tween-80 104 % of control | dose: 50.0 mg/kg/injection, schedule: Q04DX002 (ip), vehicle: saline with Tween-80 104 % of control

COc1cc2c(/C=N/NS(=O)(=O)c3ccc(C)cc3)c(Cl)[nH]c2cc1C
inactive: dose: 12.5 mg/kg/injection, schedule: Q01DX009 (ip), vehicle: Klucel (hydroxypropylcellulose) (HPC) 103 % of control | dose: 25.0 mg/kg/injection, schedule: Q01DX009 (ip), vehicle: Klucel (hydroxypropylcellulose) (HPC) 95 % of control | dose: 50.0 mg/kg/injection, schedule: Q01DX009 (ip), vehicle: Klucel (hydroxypropylcellulose) (HPC) 92 % of control | dose: 100.0 mg/kg/injection, schedule: Q01DX001 (ip), vehicle: Klucel (hydroxypropylcellulose) (HPC) 100 % of control | dose: 200.0 mg/kg/injection, schedule: Q01DX001 (ip), vehicle: Klucel (hydroxypropylcellulose) (HPC) 120 % of control | dose: 400.0 mg/kg/injection, schedule: Q01DX001 (ip), vehicle: Klucel (hydroxypropylcellulose) (HPC) 100 % of control

Nc1cc([N+](=O)[O-])ccc1O
inactive: [13] 102 % of control and 105 % of control | [14] 101 % of control | dose: 600.0 mg/kg/injection, schedule: Q01DX009 (ip), vehicle: saline 91 % of control

COc1cc(C/C(=C/c2ccc(OC)c3occc23)[N+](=O)[O-])cc(OC)c1OC
inactive: [5] 98 % of control | [6] 107 % of control | [7] 113 % of control

CN1CCN(C#CC(=O)c2ccc(Cl)cc2)CC1
inactive: dose: 7.5 mg/kg/injection, schedule: Q01DX005 (ip), vehicle: saline with Tween-80 114 % of control | [2] 117 % of control
